Data as given in paper PMC12172083, “Identification of a novel and high affinity MIF inhibitor via structure-based pharmacophore modelling, molecular docking, molecular dynamics simulations, and biological evaluation” (Journal of Enzyme Inhibition and Medicinal Chemistry, 2025).

Tests used:
[1] = test system: RAW 264.7 macrophages; experiment: RT-qPCR of LPS-induced proinflammatory gene expression; assay type: cell-based, murine; conditions: mRNA, LPS 200 ng/mL 6 h, then 300 nM compound 30 min
Description: All chemicals were purchased from commercial suppliers without additional purification required. […] Hits 1–6 compounds were obtained from WuXi AppTec (Shanghai, China) with a purity exceeding 98%. The high-performance liquid chromatography (HPLC) spectra data for each compound were provided in the Supplementary Materials (Figures S2.1–2.6). RAW 264.7 murine macrophages were purchased from the American Type Culture Collection (ATCC, TIB-71). 10% foetal bovine serum (FBS), 100 units/mL of penicillin, and 100 µg/mL of streptomycin were added to the Dulbecco’s modified Eagle’s medium (DMEM). The FBS, penicillin, streptomycin, and DMEM were purchased from Gibco (Grand Island, NY, USA). The cells were cultured in the incubator that was humidified with 5% CO2 and 95% air at 37 °C. The human recombinant MIF was purchased from Abcam (Cambridge, MA, USA) and catalogue number was ab51096. This experiment was carried out in accordance with the relevant literature. […] RAW 264.7 macrophages were subjected to treatment with LPS at a concentration of 200 ng/mL for 6 h. […] The Trizol method was used to extract the total ribonucleic acid (RNA) from the cells. The RNA reverse transcription kit (Invitrogen) was used to synthesise complementary deoxyribonucleic acid (cDNA) according to the manufacturer’s instructions. The SYRB Green qPCR kit and the primers were used for amplification. Thereafter, to standardise the data, the expression levels of the target genes were normalised to GAPDH and calculated by using the 2^−ΔΔCT method. The expression data were presented in the format of fold-change for clear visualisation.

[2] = test system: MIF; set-up: method as in PMID 34153665, PMID 33823428; conditions: cited from earlier work
[3] = target: T1, MIF-CD74 binding (Homo sapiens, UniProt P14174); experiment: Pull down assay of GST-MIF with CD74; conditions: 40 nM biotin-Hit-1; 100 nM and 200 nM CD74; western blot
T1 sequence (P14174 1-115): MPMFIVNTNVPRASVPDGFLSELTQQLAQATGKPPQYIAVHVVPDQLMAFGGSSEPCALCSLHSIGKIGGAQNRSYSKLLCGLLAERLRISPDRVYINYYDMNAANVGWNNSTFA
Procedure: The pull down experiment was executed as described previously[36] and in line with defined standard principles. The pre-washed beads with purified GST-MIF were incubated for 2 h at 4 °C. The sample was centrifuged at 10 000 rpm and the purified protein was transferred to a new Eppendorf (EP) tube to remove non-specifically bound background proteins. The 40 nM of biotin-Hit-1 was added to the purified protein for incubation. […] The beads were washed five times with PBST. The proteins were denatured at 100 °C for 5 min. The protein bands were isolated and segregated via sodium dodecyl sulphate-polyacrylamide gel electrophoresis (SDS-PAGE) technique. The polyvinylidene fluoride (PVDF) membrane was pre-soaked in methanol. The protein bands were transferred onto the PVDF membrane under the condition of 200 mA. The membrane was blocked by incubating it with 3% bovine serum albumin (BSA) in PBS at 37 °C for 2 h. After every incubation period ended, the membrane was washed three times successively with PBST, with each washing step taking 10 min. Subsequently, the membrane was subjected to incubating with the primary antibody on a shaker overnight at 4 °C. […] Thereafter, the light signal was detected by a sophisticated detection system. Employing the Image J software, the intensity of the bands was quantified.

[4] = target: T2, MIF (Homo sapiens, UniProt P14174); experiment: ITC assay, binding affinity to MIF; conditions: 25 °C, pH 7.5, mean ± SD
T2 construct: purchased Abcam ab51096
T2 sequence (P14174 2-115 limits assumed): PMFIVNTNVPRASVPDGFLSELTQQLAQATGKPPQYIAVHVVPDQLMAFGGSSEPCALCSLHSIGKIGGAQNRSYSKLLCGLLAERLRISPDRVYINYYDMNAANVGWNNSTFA
Procedure: (§1) All chemicals were purchased from commercial suppliers without additional purification required. […] The high-performance liquid chromatography (HPLC) spectra data for each compound were provided in the Supplementary Materials (Figures S2.1–2.6). RAW 264.7 murine macrophages were purchased from the American Type Culture Collection (ATCC, TIB-71). 10% foetal bovine serum (FBS), 100 units/mL of penicillin, and 100 µg/mL of streptomycin were added to the Dulbecco’s modified Eagle’s medium (DMEM). The FBS, penicillin, streptomycin, and DMEM were purchased from Gibco (Grand Island, NY, USA). The cells were cultured in the incubator that was humidified with 5% CO2 and 95% air at 37 °C. The human recombinant MIF was purchased from Abcam (Cambridge, MA, USA) and catalogue number was ab51096.

[5] = target: T2, MIF; experiment: MST assay, binding affinity to MIF; conditions: mean ± SD
Procedure: as §1
The MST assay was used to measure the Kd value, aiming to assess the binding affinity between small molecules and targeted proteins in the field of drug discovery. […] The degree of labelling (DOL) of the MIF protein was calculated. The ideal DOL was in the range of 0.5–1. The Monolith™ RED-NHS second-generation protein labelling kit (NanoTemper Technologies) was used for the fluorescent labelling of MIF protein. We strictly followed the instructions of the kit for the experiment. The PBST (Phosphate-Buffered Saline with Tween) solution containing 0.05% Tween 20 was configured. The ligand was diluted into 16 concentration gradients using the semi-dilution method. The fluorescently labelled protein was added and thoroughly mixed, then incubated for 5 min in the dark. The solution was taken by capillary tube and assayed with the Monolith NT.115 instrument (NanoTemper Technologies). Subsequently, the difference was recorded in fluorescence intensity. The fluorescence intensity was plotted against the concentration of the hit compounds to generate a fluorescence dose curve, following which the Kd value was calculated.

## Oc1ccc(-n2cc(-c3ccc4ccccc4n3)nn2)cc1 [Hit 3a, reference compound]
[1]
  Reduction of TNF-α level compared with the LPS group: 2.2 fold

## COc1ccc(-c2cc(C)nc(SCc3cccc(C(=O)O)c3)n2)cc1 [Hit Z-312, 3-({[4-(4-methoxyphenyl)-6-methyl-2-pyrimidinyl]thio}1methyl)benzoic acid]
[2]
  Release of pro-inflammatory factors induced by LPS (TNF-α, IL-6, IL-1β): suppress the release

## CCc1ccn2cc(-c3cc(-c4ccccc4)no3)nc2c1 [Hit-1]
[1]
  Reduction of TNF-α level compared with the LPS group: 3.7 fold
[1]; compared with compound 3a
  Inhibitory effect on the IL-1β: distinctly stronger inhibitory effect
  Inhibitory effect on the IL-6 level: markedly stronger inhibitory effect
[3]
  Effect on MIF interaction with CD74: potently suppressed
[4]
  Kd: 320 ± 10 nM
[5]
  Kd: 290 ± 10 nM

## Cc1ccn2cc(-c3cc(-c4ccccc4)no3)nc2c1 [Hit-2]
[5]
  Kd: 460 ± 30 nM

## c1ccc(-c2cc(-c3cn4cccnc4n3)on2)cc1 [Hit-3]
[5]
  Kd: 540 ± 20 nM

## Cc1nn(-c2ccccc2)nc1-c1nnc(-c2ccc(Cl)cc2)o1 [Hit-4]
[5]
  Kd: 750 ± 60 nM

## Cc1nn(-c2ccccc2)nc1-c1nnc(-c2ccccc2)o1 [Hit-5]
[5]
  Kd: 810 ± 40 nM

## Cc1nn(-c2ccccc2)nc1-c1nnc(-c2ccc(C(F)(F)F)cc2)o1 [Hit-6]
[5]
  Kd: 720 ± 50 nM

## COC(=O)CC1CC(c2ccc(O)cc2)=NO1 (centres unmarked) [ISO-1]
[2]
  Release of pro-inflammatory factors induced by LPS (TNF-α, IL-6, IL-1β): suppress the release
